The values that follow come from patent publication US20090092661A1, “LIPOSOME COMPOSITIONS FOR IN VIVO ADMINISTRATION OF BORONIC ACID COMPOUNDS” (priority 2007, published 2009).

Structures are written as SMILES. Where two headings read alike, the source gives them in different places.

In general, Cmax refers to the highest concentration seen after dosing.

Series [1] is described as follows: Plasma pharmacokinetics in mice (another study, Table 2). Format: in vivo. The note with it: mouse. As for the experimental part: In another study, liposome-entrapped bortezomib was administered to mice and the pharmacokinetic parameters were determined. The liposomes were composed of 22:0PC/mPEG-DSPE and were prepared as described in Example 7.
A short description of series [2]: Pharmacokinetics in plasma, blood and tumor of SCID mice bearing CWR22 tumors (Example 7). Format: in vivo. The note with it: for AUC(0-t): read-out: AUC(0-24 h). Here is the method:
Liposome formulations prepared as described herein were administered in vivo to mice. As described in Example 7, liposomes comprised of 22:0PC/mPEG-DSPE (95/5) and containing entrapped bortezomib were prepared and administered intravenously to tumor-bearing mice. A control group of mice was treated with bortezomib sold under the trade name VELCADE®, which is a mixture of bortezomib in mannitol. FIGS. 11A-11C show the concentration, in ng/mL, of bortezomib in plasma (FIG. 11A), blood (FIG. 11B) and tumor (FIG. 11C) for the drug in free form (diamonds) or entrapped in liposomes (squares).
Blood and tumor samples were taken at various time points. The bortezomib concentrations in blood, plasma and tumor tissues were determined by LC-MS.

For series [3] the following is noted: cited from earlier work.
Setting [4] is: male, SCID, mouse, iv, Plasma, mice, i.v. 0.8 mg/kg.
Where [5] appears, read: male, SCID, mouse, iv, Tumor, mice, i.v. 0.8 mg/kg.
Where [6] appears, read: male, SCID, mouse, iv, Whole Blood, mice, i.v. 0.8 mg/kg.

Consider `CC(C)C[C@H](NC(=O)[C@H](Cc1ccccc1)NC(=O)c1cnccn1)B(O)O` [bortezomib], for which the concentration at 5 min in series [1] (intravenous, read-out: Conc. At 5 min.) turned out to be 423 ± 33.6 ng/mL. Besides, the AUC(0-t) in series [1] (iv, read-out: AUC(0-24 h)) was determined as 271 ng·h/mL; in series [2] (setting [4]), 59800 ng·h/mL; in series [2] (setting [5]), 12800 ng·h/mL; in series [2] (setting [6]), 37200 ng·h/mL. Further, the clearance in series [1] (iv, read-out: CL-obs (converted)) was 0.897 mL/min; in series [2] (male, SCID, mouse, intravenous, 0.8 mg/kg, Plasma, estimated using T½α phase, read-out: CL-obs (converted)), 0.222 mL/min/kg. For the same molecule, the Vd is 0.37 L in series [1] (iv, read-out: Vss) and 0.0427 L/kg in series [2] (male, SCID, mouse, intravenous, 0.8 mg/kg, Plasma, estimated using T½α phase, read-out: Vss-obs). Besides, in series [2] (Whole Blood), the “CL(app) = dose/AUC24 h” value worked out at 0.358 mL/min/kg. The results for the Cmax in series [2] (setting [4]), in series [2] (setting [5]) and in series [2] (setting [6]) were 23500 ng/mL, 674 ng/mL and 10300 ng/mL, respectively. In addition, in series [2] (male, SCID, mouse, iv, Plasma, mice, i.v. 0.8 mg/kg, read-out: T1/2(α) (converted)), the half-life is 2.7 h. For the same molecule, the maximum tolerated dose in series [3] (intravenous bolus on days 1, 4, 8, and 11 of a 3-week cycle) is given as 1.56 mg/m^2; in series [3] (patients with solid tumors, intravenously once or twice weekly) it was 1.3 mg/m^2.
